ChEMBL document CHEMBL1201862, “PubChem BioAssay data set” (2004)
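Grown in 96-well plates, cells were treated for 48 hours with each compound at five concentrations. Insufficient inhibition: endpoint recorded as highest concentration tested. At the GI50, growth is halved.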 Activity calls are given as the source filed them. Cut-off read from the data, not from the text of the source: active = GI50 up to about 1.1 µM and inactive = higher.

Tests used:
Experiment in all cases: NCI-60 cell line screen, 48 h
[1] = system: SNB-75
[2] = system: HOP-62
[3] = system: A549
[4] = system: OVCAR-3
[5] = system: BT-549
[6] = system: SF-539
[7] = system: CAKI-1
[8] = system: NCI-H23
[9] = system: 786-0
[10] = system: A498
[11] = system: OVCAR-8
[12] = system: SK-OV-3
[13] = system: Malme-3M
[14] = system: SK-MEL-28
[15] = system: SN12C
[16] = system: PC-3
[17] = system: SF-268
[18] = system: RXF 393
[19] = system: HCT-15
[20] = system: M14
[21] = system: NCI/ADR-RES
[22] = system: OVCAR-5
[23] = system: RPMI-8226
[24] = system: MDA-MB-231
[25] = system: U-251
[26] = system: Hs-578T
[27] = system: HCC 2998
[28] = system: KM12
[29] = system: IGROV-1
[30] = system: NCI-H460
[31] = system: OVCAR-4
[32] = system: NCI-H522
[33] = system: HCT-116
[34] = system: HT-29
[35] = system: CCRF-CEM
[36] = system: T47D
[37] = system: UACC-257
[38] = system: SR
[39] = system: K562
[40] = system: NCI-H226
[41] = system: ACHN
[42] = system: SK-MEL-5
[43] = system: MOLT-4
[44] = system: SW-620
[45] = system: MDA-MB-435
[46] = system: HOP-92
[47] = system: SK-MEL-2
[48] = system: DU-145
[49] = system: MDA-N
[50] = system: COLO 205
[51] = system: UO-31
[52] = system: SF-295
[53] = system: UACC-62
[54] = system: MCF7
[55] = system: TK-10
[56] = system: EKVX
[57] = system: LOX IMVI
[58] = system: SNB-19
[59] = system: HL-60

## COc1ccc(C2CC(c3ccc4ccccc4c3O)=NN2C(C)=O)cc1OC (stereo not given)
[1]
  GI50: > 100 µM (inactive)
[2]
  GI50: > 100 µM (inactive)
[3]
  GI50: > 100 µM (inactive)
[4]
  GI50: > 100 µM (inactive)
[5]
  GI50: > 100 µM (inactive)
[6]
  GI50: > 100 µM (inactive)
[7]
  GI50: > 100 µM (inactive)
[8]
  GI50: > 100 µM (inactive)
[9]
  GI50: > 100 µM (inactive)
[10]
  GI50: > 100 µM (inactive)
[11]
  GI50: > 100 µM (inactive)
[12]
  GI50: > 100 µM (inactive)
[13]
  GI50: > 100 µM (inactive)
[14]
  GI50: > 100 µM (inactive)
[15]
  GI50: > 100 µM (inactive)
[16]
  GI50: > 100 µM (inactive)
[17]
  GI50: 61.7 µM (inactive)
[18]
  GI50: > 100 µM (inactive)
[19]
  GI50: > 100 µM
[20]
  GI50: > 100 µM (inactive)
[21]
  GI50: > 100 µM (inactive)
[22]
  GI50: > 100 µM (inactive)
[23]
  GI50: > 100 µM (inactive)
[24]
  GI50: > 100 µM (inactive)
[25]
  GI50: > 100 µM (inactive)
[26]
  GI50: 71.1 µM (inactive)
[27]
  GI50: > 100 µM (inactive)
[28]
  GI50: > 100 µM (inactive)
[29]
  GI50: > 100 µM (inactive)
[30]
  GI50: > 100 µM (inactive)
[31]
  GI50: > 100 µM (inactive)
[32]
  GI50: > 100 µM (inactive)
[33]
  GI50: > 100 µM (inactive)
[34]
  GI50: > 100 µM (inactive)
[35]
  GI50: 18.8 µM (inactive)
[36]
  GI50: > 100 µM (inactive)
[37]
  GI50: > 100 µM (inactive)
[38]
  GI50: 19.1 µM (inactive)
[39]
  GI50: 78.5 µM (inactive)
[40]
  GI50: > 100 µM (inactive)
[41]
  GI50: > 100 µM (inactive)
[42]
  GI50: > 100 µM (inactive)
[43]
  GI50: 55.1 µM (inactive)
[44]
  GI50: > 100 µM (inactive)
[45]
  GI50: > 100 µM (inactive)
[46]
  GI50: > 100 µM (inactive)
[47]
  GI50: > 100 µM (inactive)
[48]
  GI50: > 100 µM (inactive)
[49]
  GI50: > 100 µM (inactive)
[50]
  GI50: > 100 µM (inactive)
[51]
  GI50: > 100 µM (inactive)
[52]
  GI50: > 100 µM (inactive)
[53]
  GI50: 75.9 µM (inactive)
[54]
  GI50: > 100 µM (inactive)
[55]
  GI50: > 100 µM (inactive)

## O=c1c2ccccc2oc2nc3n(c(=O)c12)CCCS3
[1]
  GI50: 63.4 µM (inactive)
[2]
  GI50: > 100 µM (inactive)
[3]
  GI50: > 100 µM (inactive)
[56]
  GI50: > 100 µM (inactive)
[4]
  GI50: > 100 µM (inactive)
[5]
  GI50: > 100 µM (inactive)
[6]
  GI50: > 100 µM (inactive)
[7]
  GI50: > 100 µM (inactive)
[8]
  GI50: > 100 µM (inactive)
[9]
  GI50: > 100 µM (inactive)
[10]
  GI50: > 100 µM (inactive)
[11]
  GI50: > 100 µM (inactive)
[12]
  GI50: > 100 µM (inactive)
[13]
  GI50: > 100 µM (inactive)
[14]
  GI50: > 100 µM (inactive)
[15]
  GI50: > 100 µM (inactive)
[16]
  GI50: > 100 µM (inactive)
[17]
  GI50: > 100 µM (inactive)
[18]
  GI50: > 100 µM (inactive)
[19]
  GI50: > 100 µM
[57]
  GI50: > 100 µM (inactive)
[20]
  GI50: > 100 µM (inactive)
[21]
  GI50: > 100 µM (inactive)
[22]
  GI50: > 100 µM (inactive)
[23]
  GI50: > 100 µM (inactive)
[24]
  GI50: > 100 µM (inactive)
[25]
  GI50: > 100 µM (inactive)
[58]
  GI50: > 100 µM (inactive)
[26]
  GI50: > 100 µM (inactive)
[27]
  GI50: > 100 µM (inactive)
[28]
  GI50: > 100 µM (inactive)
[29]
  GI50: > 100 µM (inactive)
[30]
  GI50: > 100 µM (inactive)
[31]
  GI50: > 100 µM (inactive)
[32]
  GI50: > 100 µM (inactive)
[33]
  GI50: > 100 µM (inactive)
[35]
  GI50: > 100 µM (inactive)
[36]
  GI50: > 100 µM (inactive)
[37]
  GI50: > 100 µM (inactive)
[38]
  GI50: > 100 µM (inactive)
[39]
  GI50: > 100 µM (inactive)
[40]
  GI50: > 100 µM (inactive)
[41]
  GI50: > 100 µM (inactive)
[42]
  GI50: > 100 µM (inactive)
[43]
  GI50: > 100 µM (inactive)
[44]
  GI50: > 100 µM (inactive)
[45]
  GI50: > 100 µM (inactive)
[46]
  GI50: > 100 µM (inactive)
[47]
  GI50: > 100 µM (inactive)
[48]
  GI50: > 100 µM (inactive)
[49]
  GI50: > 100 µM (inactive)
[50]
  GI50: > 100 µM (inactive)
[51]
  GI50: 15.7 µM (inactive)
[52]
  GI50: > 100 µM (inactive)
[53]
  GI50: > 100 µM (inactive)
[54]
  GI50: > 100 µM (inactive)
[55]
  GI50: > 100 µM (inactive)

## CC(=O)Nc1ccc(S(=O)(=O)[N-]C2C(=O)c3ccccc3C(=O)C2[n+]2ccccc2)cc1 (stereo not given)
[1]
  GI50: 16.1 µM (inactive)
[2]
  GI50: 17.9 µM (inactive)
[3]
  GI50: 19.5 µM (inactive)
[56]
  GI50: 31 µM (inactive)
[4]
  GI50: 16.4 µM (inactive)
[5]
  GI50: 3.02 µM (inactive)
[6]
  GI50: 18.5 µM (inactive)
[7]
  GI50: > 100 µM (inactive)
[8]
  GI50: 7.64 µM (inactive)
[9]
  GI50: > 100 µM (inactive)
[11]
  GI50: 17.6 µM (inactive)
[12]
  GI50: 94.8 µM (inactive)
[13]
  GI50: 12.4 µM (inactive)
[14]
  GI50: 16.5 µM (inactive)
[15]
  GI50: 99.3 µM (inactive)
[16]
  GI50: 17.1 µM (inactive)
[17]
  GI50: 18.5 µM (inactive)
[18]
  GI50: 16 µM (inactive)
[19]
  GI50: 28.3 µM
[57]
  GI50: 63.4 µM (inactive)
[20]
  GI50: 14.1 µM (inactive)
[21]
  GI50: 17.1 µM (inactive)
[22]
  GI50: 17.7 µM (inactive)
[23]
  GI50: 17.5 µM (inactive)
[24]
  GI50: 26.6 µM (inactive)
[25]
  GI50: 14.3 µM (inactive)
[58]
  GI50: 14.3 µM (inactive)
[26]
  GI50: 23.1 µM (inactive)
[27]
  GI50: 19.1 µM (inactive)
[28]
  GI50: 14.6 µM (inactive)
[29]
  GI50: 15 µM (inactive)
[30]
  GI50: 29.3 µM (inactive)
[31]
  GI50: 15.5 µM (inactive)
[32]
  GI50: 19.2 µM (inactive)
[33]
  GI50: > 100 µM (inactive)
[34]
  GI50: 45.1 µM (inactive)
[35]
  GI50: 15.1 µM (inactive)
[36]
  GI50: 47.6 µM (inactive)
[37]
  GI50: 16.1 µM (inactive)
[38]
  GI50: 13.5 µM (inactive)
[39]
  GI50: 23.3 µM (inactive)
[40]
  GI50: > 100 µM (inactive)
[41]
  GI50: 15.8 µM (inactive)
[42]
  GI50: 3.87 µM (inactive)
[43]
  GI50: 17.6 µM (inactive)
[44]
  GI50: 17.1 µM (inactive)
[45]
  GI50: 4.09 µM (inactive)
[46]
  GI50: 17.4 µM (inactive)
[47]
  GI50: 12.5 µM (inactive)
[48]
  GI50: > 100 µM (inactive)
[49]
  GI50: 17.2 µM (inactive)
[50]
  GI50: > 100 µM (inactive)
[51]
  GI50: 9.06 µM (inactive)
[52]
  GI50: 15.4 µM (inactive)
[53]
  GI50: 14.8 µM (inactive)
[54]
  GI50: 16.8 µM (inactive)
[59]
  GI50: 13.8 µM (inactive)
[55]
  GI50: > 100 µM (inactive)
